Measurements: patent US9067937B2 (priority 2012, dated 2015)
Where a name gives a salt, the structure may show the parent alone.

Assays:
22Rv1 cells = test: Cell-based assay, anti-proliferative activity (Cell Counting Kit-8, 72 hours); design: species or system human; settings: Homo sapiens, 22Rv1, 72 h, read-out: IC50 (μM) (22Rvl)
Method in brief: (§1)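 Cells seeded at 2,000–3,000 cells/well and exposed to candidate MELK inhibitors for 72 hours; growth measured with Cell Counting Kit-8. IC50 values calculated from the growth read-out.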

DU4475 cells = test: as above; design: species or system human; settings: Homo sapiens, DU-4475, 72 h, read-out: IC50 (μM) (DU4475)
Method in brief: as §1

A549 cells = test: as above; design: species or system human; settings: Homo sapiens, A549, 72 h, read-out: IC50 (μM) (A549)
Method in brief: as §1

T47D cells = test: as above; design: species or system human; settings: Homo sapiens, T47D, 72 h, read-out: IC50 (μM) (T47D)
Method in brief: as §1

MELK = MELK (Homo sapiens, UniProt Q14680); test: Kinase assay (IMAP fluorescence polarization, FITC-labeled histone H3 peptide); assay type: biochemical; settings: 50 micro-M ATP
MELK, sequence (Q14680 whole entry, looked up): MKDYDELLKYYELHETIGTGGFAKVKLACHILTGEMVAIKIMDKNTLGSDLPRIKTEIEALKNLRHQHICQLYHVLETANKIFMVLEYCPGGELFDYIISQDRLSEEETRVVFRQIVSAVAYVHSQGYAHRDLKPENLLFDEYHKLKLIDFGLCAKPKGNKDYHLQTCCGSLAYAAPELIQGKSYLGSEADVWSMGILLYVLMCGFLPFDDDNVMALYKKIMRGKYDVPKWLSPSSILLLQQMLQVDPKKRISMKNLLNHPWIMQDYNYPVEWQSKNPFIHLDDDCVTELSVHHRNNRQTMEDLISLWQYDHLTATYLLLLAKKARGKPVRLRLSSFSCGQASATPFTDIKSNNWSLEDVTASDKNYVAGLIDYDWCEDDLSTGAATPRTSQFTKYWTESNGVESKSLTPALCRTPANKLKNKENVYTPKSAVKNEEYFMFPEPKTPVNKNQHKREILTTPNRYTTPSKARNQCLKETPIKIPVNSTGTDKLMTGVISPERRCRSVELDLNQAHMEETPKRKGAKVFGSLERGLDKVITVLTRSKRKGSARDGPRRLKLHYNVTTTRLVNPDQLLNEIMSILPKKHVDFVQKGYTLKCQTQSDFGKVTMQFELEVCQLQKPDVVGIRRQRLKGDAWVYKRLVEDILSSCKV
Method in brief: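 Kinase (0.8 ng/μL) reacted with 100 nM FITC-histone H3 peptide and 50 μM ATP in 20 mM HEPES, 0.3 mM MgCl2, 2 mM DTT, 0.01% Tween-20, pH 7.4, for 1 hour at room temperature. Phosphorylation read by IMAP fluorescence polarization after adding binding solution; IC50 from four-parameter fit.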

HT1197 cells = test: Cell-based assay, anti-proliferative activity, MELK-negative control (Cell Counting Kit-8, 72 hours); design: species or system human; settings: Homo sapiens, HT1197, 72 h, read-out: IC50 (μM) (HTll97)
Experimental: 100 micro-L of cell suspension was seeded onto 96-well microtiter plate (ViewPlate-96FTC, PerkinElmer). The initial cell concentration of 22Rv1, T47D, A549, DU4475, and HT1197 were 3,000 cells/well, 2,000 cells/well and 2,500 cells/well, respectively. Cellular growth was determined using Cell Counting Kit-8 (DOJINDO) at 72 hours after the exposure of the candidate inhibitors. […] Accurate IC50 values were calculated as described previously.

SMILES	IC50 (22Rv1 cells) [µM]	IC50 (DU4475 cells) [µM]	IC50 (A549 cells) [µM]	IC50 (T47D cells) [µM]	IC50 (MELK) [µM]	IC50 (HT1197 cells) [µM]
N[C@H]1CCCN(c2ccc(Nc3c(C(=O)C4CC4)cnc4ccc(-c5cc(F)c(O)c(Cl)c5)nc34)cn2)C1 [Example 83, (S)-{4-[6-(3-Aminopiperidin-1-yl)pyridin-3-ylamino]-6-(3-chloro-5-fluoro-4-hydroxyphenyl)-1,5-naphthyridin-3-yl}(cyclopropyl)methanone]	0.025	0.015	0.09	0.012	0.001	2.7
COc1ccc(-c2ccc3ncc(C(C)=O)c(N[C@H]4CC[C@H](CN(C)C)CC4)c3n2)cc1 [Example 84, 1-(4-{trans-4-[(Dimethylamino)methyl]cyclohexylamino}-6-(4-methoxyphenyl)-1,5-naphthyridin-3-yl)ethanone dihydrochloride]	0.58	5.2	2.4	0.25	0.031	6
COc1c(Cl)cc(-c2ccc3ncc(C(C)=O)c(N[C@H]4CC[C@H](CN(C)C)CC4)c3n2)cc1Cl [Example 85, 1-[6-(3,5-Dichloro-4-methoxyphenyl)-4-{trans-4-[(dimethylamino)methyl]-cyclohexylamino}-1,5-naphthyridin-3-yl]ethanone dihydrochloride]	0.77	2.3	2.3	0.43	0.12	6.5
CC(=O)c1cnc2ccc(-c3ccc(O)nc3)nc2c1N[C@H]1CC[C@H](CN(C)C)CC1 [Example 86, 1-(4-{trans-4-[(Dimethylamino)methyl]cyclohexylamino}-6-(6-hydroxypyridin-3-yl)-1,5-naphthyridin-3-yl)ethanone dihydrochloride]	5.3	6.5	8	6.2	0.011	10
CC(=O)c1cnc2ccc(-c3ccc(C#N)nc3)nc2c1N[C@H]1CC[C@H](CN(C)C)CC1 [Example 87, 5-(7-Acetyl-8-{trans-4-[(dimethylamino)methyl]cyclohexylamino}-1,5-naphthyridin-2-yl)picolinonitrile dihydrochloride]	0.66	0.74	1.8	0.66	0.0045	2
CC(=O)c1cnc2ccc(-c3ccc(O)cc3)nc2c1N[C@H]1CC[C@H](CN(C)C)CC1 [Example 88, 1-(4-{trans-4-[(Dimethylamino)methyl]cyclohexylamino}-6-(4-hydroxyphenyl)-1,5-naphthyridin-3-yl)ethanone dihydrochloride]	0.04	0.021	0.023	0.031	0.0045	0.039
CC(=O)c1cnc2ccc(-c3cc(F)c(O)c(Cl)c3)nc2c1NC[C@H]1CC[C@H](N(C)C)CC1 [Example 90, 1-[6-(3-Chloro-5-fluoro-4-hydroxyphenyl)-4-{[trans-4-(dimethylamino)-cyclohexyl]methylamino}-1,5-naphthyridin-3-yl]ethanone dihydrochloride]	0.052	0.027	0.12	0.03	0.0024	10
CC(=O)c1cnc2ccc(-c3cc(F)c(O)c(Cl)c3)nc2c1N[C@H]1CC[C@@H](CN(C)C)CC1 [Example 93, 1-{6-(3-Chloro-5-fluoro-4-hydroxyphenyl)-4-({cis-4-[(dimethylamino)methyl]cyclohexyl}-amino)-1,5-naphthyridin-3-yl}ethanone dihydrochloride]	0.032	0.011	0.039	0.02	0.0011	0.19
CC(=O)c1cnc2ccc(-c3cc(Cl)c(O)c(Cl)c3)nc2c1Nc1ccc(N2CCC[C@@H](N)C2)nc1 [Example 95, (R)-1-{4-[6-(3-Aminopiperidin-1-yl)pyridin-3-ylamino]-6-(3,5-dichloro-4-hydroxyphenyl)-1,5-naphthyridin-3-yl}ethanone trihydrochloride]	0.029	0.03	0.088	0.022	0.002	1.9
CC(=O)c1cnc2ccc(-c3cc(F)c(O)c(Cl)c3)nc2c1Nc1ccc(N2CCC[C@@H](N)C2)nc1 [Example 96, (R)-1-{4-[6-(3-Aminopiperidin-1-yl)pyridin-3-ylamino]-6-(3-chloro-5-fluoro-4-hydroxyphenyl)-1,5-naphthyridin-3-yl}ethanone]	0.026	0.024	0.035	0.018	0.0036	0.43
N[C@@H]1CCCN(c2ccc(Nc3c(C(=O)C4CC4)cnc4ccc(-c5cc(Cl)c(O)c(Cl)c5)nc34)cn2)C1 [Example 201, (R)-(4-{[6-(3-aminopiperidin-1-yl)pyridin-3-yl]amino}-6-(3,5-dichloro-4-hydroxyphenyl)-1,5-naphthyridin-3-yl) (cyclopropyl)methanone]	0.0061	0.003	0.0061	0.0025	0.00093	0.032
N[C@@H]1CCCN(c2ccc(Nc3c(C(=O)C4CC4)cnc4ccc(-c5cc(F)c(O)c(Cl)c5)nc34)cn2)C1 [Example 202, (R)-(4-{[6-(3-aminopiperidin-1-yl)pyridin-3-yl]amino}-6-(3-chloro-5-fluoro-4-hydroxyphenyl)-1,5-naphthyridin-3-yl) (cyclopropyl) methanone]	0.0044	0.001	0.0054	0.0038	0.00046	0.047
CN(C)[C@H]1CC[C@H](Nc2c(C(=O)CO)cnc3ccc(-c4cc(Cl)c(O)c(Cl)c4)nc23)CC1 [Example 203, 1[6-(3,5-dichloro-4-hydroxyphenyl)-4-{[trans-4-(dimethylamino)cyclohexyl]amino}-1,5-naphthyridin-3-yl)-2-hydroxyethanone dihydrochloride]	0.017	0.013	0.034	0.0093	0.0015	1.2
CN(C)C[C@H]1CC[C@H](Nc2c(C(=O)CO)cnc3ccc(-c4cc(F)c(O)c(Cl)c4)nc23)CC1 [Example 204, 1-[6-(3-chloro-5-fluoro-4-hydroxyphenyl)-4-({trans-4-[(dimethylamino)methyl]cyclohexyl}amino)-1,5-naphthyridin-3-yl)]-2-hydroxyethanone dihydrochloride]	0.02	0.013	0.058	0.014	0.0013	10
CCC(=O)c1cnc2ccc(-c3cc(F)c(O)c(Cl)c3)nc2c1N[C@H]1CC[C@H](CN(C)C)CC1 [Example 205, 1-[6-(3-chloro-5-fluoro-4-hydroxyphenyl)-4-({trans-4-[(dimethylamino)methyl]cyclohexyl}amino)-1,5-naphthyridin-3-yl)]propan-1-one dihydrochloride]	0.022	0.033	0.032	0.0083	0.0028	0.69
CCC(=O)c1cnc2ccc(-c3cc(Cl)c(O)c(Cl)c3)nc2c1N[C@H]1CC[C@H](CN(C)C)CC1 [Example 206, 1-[6-(3,5-dichloro-4-hydroxyphenyl)-4-({trans-4-[(dimethylamino)methyl]cyclohexyl}amino)-1,5-naphthyridin-3-yl)]propan-1-one dihydrochloride]	0.022	0.023	0.061	0.01	0.0013	10
CCC(=O)c1cnc2ccc(-c3cc(Cl)c(O)c(Cl)c3)nc2c1Nc1ccc(N2CCC[C@H](N)C2)nc1 [Example 207, (S)-1-(4-{[6-(3-aminopiperidin-1-yl)pyridin-3-yl]amino}-6-(3,5-dichloro-4-hydroxyphenyl)-1,5-naphthyridin-3-yl)propan-1-one trihydrochloride]	0.034	0.024	0.098	0.018	0.0016	3.9
CCC(=O)c1cnc2ccc(-c3cc(F)c(O)c(Cl)c3)nc2c1Nc1ccc(N2CCC[C@H](N)C2)nc1 [Example 208, (S)-1-(4{[6-(3-aminopiperidin-1-yl)pyridin-3-yl]amino}-6-(3-chloro-5-fluoro-4-hydroxyphenyl)-1,5-naphthyridin-3-yl)propan-1-one trihydrochloride]	0.026	0.021	0.063	0.015	0.0026	0.86
